Laboratory results: patent publication US20070265456A1, “Novel crystal forms of atorvastatin hemi-calcium and processes for their preparation as well as novel processes for preparing other forms” (priority 2006, published 2007)

Test: Stability testing against formation of the impurities atorvastatin-epoxy-dihydroxy (AED) and epoxydiketone on storage
Assay type: physicochemical
Parameters: key to ATV-epoxy-diketone: impurity content in % (w/w)
Description: As used herein, the term “stable” in reference to atorvastatin hemi-calcium Form VIII relates to the formation of […] 0.01% (w/w) of the impurity AED. The stability of Form VIII is measured by maintaining Form VIII at a temperature of about 40° C. at a relative humidity of about 75% for at least about 1 month, or at a temperature of about 25° C. at a relative humidity of about 60% for at least about 6 months. Stable atorvastatin hemi-calcium Form VIII is a Form VIII in which no more than about 0.01% (w/w) of the AED impurity is formed when maintained under the conditions specified above.
The atorvastatin hemi-calcium crystalline produced above was dried by two steps: In a vacuum dryer at about 40° C. by 3 cycles and after the LOD<5% was reached the drying was continued in a fluid bed dryer at about 50° C. The dry material was milled and micronized.
The dried, milled, atorvastatin hemi-calcium crystalline was tested for stability against the formation of two potential impurities: atorvastatin-epoxy-dihydroxy (AED) and epoxydiketone.

[1] = 0 (5 m at storage) (Test Sample B)
[2] = 1 m/25° C./60% RH (Test Sample E)
[3] = 1 m/40° C./75% RH (Test Sample I)
[4] = 2 m/25° C./60% RH (Test Sample F)
[5] = 2 m/40° C./75% RH (Test Sample J)
[6] = 3 m/25° C./60% RH (Test Sample G)
[7] = 3 m/40° C./75% RH (Test Sample K)
[8] = 6 m/25° C./60% RH (Test Sample H)
[9] = 6 m/40° C./75% RH (Test Sample L)

For `CC(C)c1c(C(=O)Nc2ccccc2)c(-c2ccccc2)c(-c2ccc(F)cc2)n1CC[C@@H](O)C[C@@H](O)CC(=O)O` (relative stereo) [atorvastatin hemi-calcium crystalline, atorvastatin hemi-calcium], the ATV-epoxy-dihydroxy (AED) [1] was < 0.01 % (w/w), the ATV-epoxy-diketone [1] was <0.01 and the ATV-epoxy-dihydroxy (AED) [2] was < 0.01 % (w/w). The ATV-epoxy-diketone [2] was <0.01, the ATV-epoxy-dihydroxy (AED) [3] was < 0.01 % (w/w) and the ATV-epoxy-diketone [3] was <0.05. For the same molecule, the ATV-epoxy-dihydroxy (AED) [4] was < 0.01 % (w/w), the ATV-epoxy-diketone [4] was <0.05 and the ATV-epoxy-dihydroxy (AED) [5] was < 0.05 % (w/w). The ATV-epoxy-diketone [5] was <0.05, the ATV-epoxy-dihydroxy (AED) (3 m/2-8° C. (Test Sample C)) was < 0.01 % (w/w) and the ATV-epoxy-diketone (3 m/2-8° C. (Test Sample C)) was <0.05. The ATV-epoxy-dihydroxy (AED) [6] was < 0.01 % (w/w), the ATV-epoxy-diketone [6] was <0.05 and the ATV-epoxy-dihydroxy (AED) [7] was < 0.05 % (w/w). The ATV-epoxy-diketone [7] was 0.05, the ATV-epoxy-dihydroxy (AED) (6 m/2-8° C. (Test Sample D)) was < 0.05 % (w/w) and the ATV-epoxy-diketone (6 m/2-8° C. (Test Sample D)) was <0.05. The ATV-epoxy-dihydroxy (AED) [8] was < 0.01 % (w/w), the ATV-epoxy-diketone [8] was <0.05 and the ATV-epoxy-dihydroxy (AED) [9] was < 0.05 % (w/w). For the same molecule, the ATV-epoxy-diketone [9] was 0.05, the ATV-epoxy-dihydroxy (AED) (release (Test Sample A)) was < 0.01 % (w/w) and the ATV-epoxy-diketone (release (Test Sample A)) was <0.01.
